In PubChem BioAssay AID463074 (Broad Institute, 2010):
The source made the active and inactive calls.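 Rule for the calls: active = AC50 no more than tenfold above the top dose tested, or full inhibition at every dose with a flat fit (cut at about 19 µM in these data); inconclusive = flat curve fit with inhibition between 30% and 70%, or poor fit; inactive = AC50 more than tenfold above the top dose tested.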

Tested on: HMLE_sh_eGFP viability, CellTiter-Glo luminescence, 72 h
Experiment: cytotoxicity in HMLE control line with eGFP shRNA, dose response, counter-screen for HMLE_sh_ECad selective toxicity project, cell-based, HMLE_sh_eGFP, luminescence (AID 463074);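 note: counterscreen control line to flag general toxicity for the HMLE_sh_ECad screen; potency for loss of viability as luminescence drops below DMSO wells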

Compound	AC50
O=C(Nc1ccc(Cl)cc1)c1cc2c(cc1O)[nH]c1ccccc12	0.488 µM
Cn1c(N)c(C(=O)COC(=O)c2ccccc2C(=O)c2ccc(Cl)c([N+](=O)[O-])c2)c(=O)n(C)c1=O	3.61 µM
COc1ccc(-c2cccc([C@H]3[C@@H]4C=CCC[C@@]4(C)C(=O)N3Cc3ccccc3)c2)cc1	7.45 µM
CN1/C(=C\C(=O)Nc2ccc(Br)cc2)C(C)(C)c2ccccc21	7.32 µM
O=c1cc(N2CCCCC2)c(-c2ccccc2)nn1Cc1cccc(F)c1	5.13 µM
Fc1cccc(-n2c(-c3cccs3)nc3nc4ccccc4nc32)c1	2.32 µM
COc1ccc(CCNC(=O)c2coc(=O)c(Br)c2)cc1	15 µM
O=S(=O)(c1cnc(Cl)c(Br)c1)N1CCc2ccccc21	6.77 µM
O=C(NCCCN1CCOCC1)c1ccc(Sc2ccc(Br)cc2)c([N+](=O)[O-])c1	< 0.16 µM
CC1(C)CC[C@]2(CO)[C@@H](O)C[C@]3(C)C(=CCC4[C@@]5(C)CC[C@H](O)C(C)(C)C5CC[C@]43C)[C@@H]2C1 (stereo partly specified)	4.35 µM
N#Cc1c(-c2ccccc2)nc(SCc2cccc(Cl)c2)[nH]c1=O	7.69 µM
CCOC(=O)/C(=C\c1ccc([N+](=O)[O-])cc1)C(=O)c1cc(C(C)=O)c(Nc2ccccc2)s1	1.07 µM
COc1ccc(C2c3c(ncn(Cc4ccco4)c3=N)Oc3ccc4ccccc4c32)cc1 (stereo unspecified)	7.79 µM
N#Cc1c(NC(=O)Cn2c(=O)oc3ccccc32)oc(-c2ccccc2)c1-c1ccccc1	4.24 µM
O=C(/C=C/c1ccccc1)NC(NC(=S)Nc1cc(Cl)ccc1Cl)C(Cl)(Cl)Cl (stereo unspecified)	6.28 µM
COc1ccc(NS(=O)(=O)c2cccc(C(=O)N/N=C(\C)c3ccc(-n4ccnc4)cc3)c2)cc1	> 19.5 µM (inactive)
CC(=O)Nc1ccc(SCC(=O)c2cc(C)n(-c3ccccc3)c2C)cc1	13.3 µM
FC(F)(F)c1cccc(Nc2ncnc3ccccc23)c1	1.75 µM
Cc1cccc(-c2nc(Nc3cccc(O)c3)c3ccccc3n2)c1	5.27 µM
Cc1cc(C)c(C)c(S(=O)(=O)N2CCN(c3ccc(O)cc3)CC2)c1C	10.7 µM
N#CCc1ccc(NC(=O)Nc2cccc(Cl)c2)cc1	20 µM
C=C(C)COc1ccc(-c2n[nH]c(C)c2-c2ccc(Br)cc2)c(O)c1	3.25 µM

Compound	AC50
Cc1ccc(/C=C/C(=O)N2CC(C)CC(C)C2)o1 (stereo unspecified)	17 µM
Clc1cccc(Nc2nc(-c3ccncc3)cs2)c1	5.03 µM
Cc1cc(OCC(=O)Nc2ccc(S(=O)(=O)NC3=NCCCCC3)cc2)c(C(C)C)cc1Cl	10.2 µM
CCn1c(C)nc2cc(C(=O)N/N=C/c3cccc(OC)c3O)ccc21	6.95 µM
C[C@H]1[C@H](C)CC[C@]2(C)CC[C@]3(C)C(=CC(=O)C4[C@@]5(C)CC[C@H](O)C(C)(C)C5CC[C@]43C)[C@H]12 (stereo partly specified)	3.67 µM
OCCN1CCN(CCCN2c3ccccc3Sc3ccc(C(F)(F)F)cc32)CC1	4.67 µM
CCOC(=O)c1sc(NC(=O)Nc2ccccc2Cl)cc1C	7.58 µM
N#CC(C#N)=C(C#N)c1ccc(Nc2ccccc2)cc1	3.14 µM
Cc1ccc2nc(-c3cccc(NS(C)(=O)=O)c3)cc(-c3ccccc3)c2c1	5.53 µM
CN1CCN(Cc2nc3ccccc3c(=O)n2Cc2nc(-c3ccc4ccccc4c3)cs2)CC1	3.59 µM
Cc1nnc(-c2ccc(Oc3ccc(Cl)cc3)c([N+](=O)[O-])c2)o1	0.33 µM
COc1ccc2c(C)nc(Nc3nc(C)c(C)c(=O)[nH]3)nc2c1	7.16 µM
O=C(Nc1ccc(F)cc1)c1nc(S(=O)(=O)Cc2ccccc2)ncc1Cl	7.15 µM
Cc1ccc(Nc2nc(N)c([N+](=O)[O-])c(NCc3ccco3)n2)cc1C	7.19 µM
Cc1oc2c(F)c(F)c(F)c(F)c2c1S(=O)(=O)Nc1cccc(C(F)(F)F)c1	4.95 µM
O=C1C=C(c2ccc(Cl)c(C(F)(F)F)c2)C[C@@H](c2ccc3c(c2)OCO3)C1	6.37 µM
COC(=O)c1ccc(/C=C/c2c(-c3ccc(OC)cc3)sc3ccccc23)cc1	7.05 µM
Cc1cccc(Cn2cc(/C=C/[N+](=O)[O-])c3ccccc32)c1	3.47 µM
COC(=O)c1ccccc1NCc1cc(=O)oc2cc(O)c(O)cc12	10.9 µM
Oc1ccc(CCNc2ncnc3ccc(Cl)cc23)cc1	7.91 µM
COc1cccc(/C=C/c2nc(C#N)c(NCC(C)C)o2)c1	5.06 µM
COc1ccc(-c2sc3cc4c(cc3c2C#CC2(N)CCCCC2)OCO4)cc1	1.91 µM

Compound	AC50
Clc1cccc(CN2CCc3c([nH]c4ccccc34)C2)c1Cl	6.15 µM
O=C(Nc1cc(N2CCOCC2)ncn1)NC1(C(F)(F)F)Oc2ccc(Cl)cc2O1 (stereo unspecified)	14.7 µM
COc1ccc(-n2cc(-c3ccccc3)c3c(N4CCOCC4)ncnc32)cc1	6.91 µM
COc1ccccc1/C=C/C1(C(=O)NC2CCCC2)CC(=O)N1c1ccc(F)cc1 (stereo unspecified)	10.1 µM
CCc1ccc(-c2cc(C(=O)N/N=C/c3c[nH]c4ccccc34)[nH]n2)cc1	12.6 µM
COC(=O)c1cccc(Nc2cc(C)nc(-c3ccccc3O)n2)c1	8.82 µM
Cc1ccc(N/N=C/c2ccncc2)cc1	7.44 µM
Cc1ccc(Cl)cc1N1CCN(CC(=O)NC2CCCc3ccccc32)CC1 (stereo unspecified)	6.66 µM
Cc1c(NC(=O)c2ccc([N+](=O)[O-])o2)cccc1-c1nc2ncccc2o1	6.52 µM
O=C(Nc1ccc2c(c1)OCCO2)C(=O)c1c[nH]c2ccccc12	1.85 µM
COc1cc(OC)cc(-c2sc3ccc(OC)cc3c2-c2ccc3cc[nH]c3c2)c1	3.34 µM
Cc1ccc(Sc2c([N+](=O)[O-])c(=O)n(C)c3ccccc23)cc1	7.05 µM
c1ccc(-c2cc(-c3ccncc3)nc3ccc4ccccc4c23)cc1	3.61 µM
CCCc1ccc(-c2cc(NC(=O)CSc3n[nH]c(N)n3)n(-c3ccccc3)n2)cc1	6.1 µM
O=C(Nc1ccc(OCC(F)(F)C(F)F)c(C(F)(F)F)c1)c1ccc(Cl)cc1	3.19 µM
C=CCc1cccc(CNc2nc3ccccc3n2CCC)c1O	13.5 µM
O=C(Nc1nc(-c2cccc3ccccc23)cs1)c1ccc2c(c1)S(=O)(=O)c1ccccc1C2=O	11.3 µM
O=c1[nH]c(NNC(=S)NCc2ccccc2)nc2c1C1(CCCCC1)Cc1ccccc1-2	3.91 µM
Cc1ccc(S(=O)(=O)N(C)c2ccc(OCc3cccc(C)c3)cc2)cc1	1.99 µM
Cc1cccc(N=N/C(=C\O)C(=O)c2cccs2)c1	6.25 µM
CCOC(=O)c1cc(-c2cccs2)nc2c1c(C)nn2-c1ccccn1	11.8 µM
Cc1cc(/C=C2\SC(=S)N(Cc3ccco3)C2=O)c(C)n1-c1ccccc1	2.92 µM

Compound	AC50
O=C1C=C(c2ccc(F)cc2OCc2ccccc2)C[C@@H](c2ccc(F)cc2)C1	2.25 µM
Cn1nnnc1Sc1ncnc2scc(-c3cc4ccccc4o3)c12	1.17 µM
CCOc1ccccc1CNc1ncnc2ccc(-c3c(C)noc3C)cc12	6.05 µM
C[C@@]12CCC=C[C@H]1[C@H](c1ccc(F)c(/C=C/c3ccccc3)c1)N(Cc1ccccc1)C2=O	7.18 µM
CN(C)CCNC=C(C(=O)Nc1ccc(Cl)cc1Cl)C(=O)Nc1ccc(Cl)cc1Cl	9.23 µM
CCCCNc1c(-c2ccc(OC)c(SC3CCCCC3)c2)nc2cc(C)ccn12	5.29 µM
COc1ccc2cc(/C=N/NC(=O)c3ccc(CN(c4cccc(Cl)c4Cl)S(C)(=O)=O)cc3)c(Cl)nc2c1	0.211 µM
CC(=O)Nc1ccc(OCC(O)CN2CCN(c3ccc(C)c(Cl)c3)CC2)cc1 (stereo unspecified)	8.97 µM
CC12CCC(C/C1=N\N=C1\NC(=O)/C(=C\c3cccc(Br)c3)S1)C2(C)C (stereo unspecified)	2.49 µM
CCCCC(=O)NC(c1ccco1)c1cc(Cl)c2cccnc2c1O (stereo unspecified)	5.79 µM
CNC[C@H](CC1CCCCC1)NC[C@H](CO)NCCc1cccc(C(F)(F)F)c1	6.71 µM
C/C(=N\Nc1ccccc1)c1c(O)n(-c2ccccc2)c(=O)[nH]c1=O	2.45 µM
COc1cc(/C=C2/CCC/C(=C\c3cc(O)c(OC)c(Cl)c3)C2=O)cc(Cl)c1O	0.768 µM
CCC1CCCCN1S(=O)(=O)c1ccc(S(=O)(=O)N(Cc2ccccn2)CC2CCCO2)cc1 (stereo unspecified)	2.49 µM
FC(F)(F)c1cc(CCN2CCNC[C@H]2Cc2cccc3ccccc23)cc(C(F)(F)F)c1	3.53 µM
COc1cc(OC)c(C=O)c(OC(=O)N2CCOCC2)c1	> 19.5 µM (inactive)
CCOC(=O)/C(=C\c1ccc(Cl)cc1)c1nc2sc(C)c(C)c2c(=O)[nH]1	1.54 µM
Cc1cc(Nc2cccc(F)c2)nc(-c2ccccc2O)n1	6.41 µM
COc1cc(Cl)c(NC2=CC(=O)C(=O)c3ccccc32)c(OC)c1	3.57 µM
COc1ccc(-c2sc3ccc(N4CCOCC4)cc3c2C#CC(C)(C)O)cc1	1.3 µM
Cc1ccc2nc(N(CCCN(C)C)C(=O)c3cc(-c4cccs4)nc4ccccc34)sc2c1	6.4 µM
CCN(CC)CCOc1ccc(/C(=C(\Cl)c2ccccc2)c2ccccc2)cc1	1.55 µM

Compound	AC50
COc1cc(NC2CCCCC2O)c2nc(-c3ccc(Cl)cc3)ccc2c1 (stereo unspecified)	5.65 µM
N/C(=N\N=C/c1ccc(Br)cc1)N/N=C\c1ccc(Br)cc1	3.83 µM
O=C1C(C2=NC(c3ccccn3)C3C(=O)N(c4ccc(Cl)cc4Cl)C(=O)C23)=C(O)c2ccccc21 (stereo unspecified)	> 19.5 µM (inactive)
COc1ccc(Oc2c(Cl)cnn(-c3ccc(Cl)c(Cl)c3)c2=O)cc1	3.44 µM
COc1ccc(C[C@H]2CN3C(=NC[C@@H]3Cc3ccccc3)N2CCNC(=O)CCC2CCCCC2)cc1	7.04 µM
CCOC(=O)C(=Cc1ccc(-n2ccnc2)cc1)C(=O)OCC	7.68 µM
Cn1c(=O)c(C(=O)NNC(=O)c2ccc(Br)cc2)c(O)c2ccccc21	5.69 µM
CC1=NN(c2nc(-c3ccc(Cl)cc3)cs2)C(=O)C1	12.3 µM
C(=C\c1nc(N2CCCCCC2)c2ccccc2n1)/c1ccccc1	5.54 µM
COc1ccccc1/C=C1\SC(=O)N(CCC(=O)NCCCn2ccnc2)C1=O	19.5 µM
CN1CCN(c2ccc(NC(=O)c3ccc(Cl)cc3)cn2)CC1	> 19.5 µM (inactive)
COc1ccc(C)cc1Nc1n[n+](-c2ccccc2)c(-c2c(OC)ccc3ccccc23)s1	6.93 µM
Cc1cc(C(=O)NNc2ccc(Cl)cc2)no1	1.37 µM
O=C(Nc1ccccc1)Nc1cc(Cl)cc(Cl)c1	5.13 µM
CC(C)N(CCC(=O)c1ccc2ccccc2c1)Cc1ccccc1	9.86 µM
Clc1ccc(CSc2nnnn2-c2ccc3c(c2)OCO3)c(Cl)c1	10.6 µM
N#C/C(=C\C=C\c1ccccc1[N+](=O)[O-])C(=O)NC1CCCCC1	6.88 µM
COc1cccc(N2CCN(Cc3nc4scc(-c5ccccc5)c4c(=O)[nH]3)CC2)c1	2.59 µM
